Measured values taken from PubChem BioAssay (NCI).
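Briefly, cells in 96-well plates were exposed to five compound concentrations for 48 h, and endpoints were estimated by linear interpolation. TGI: concentration producing complete growth inhibition.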

Tests used:
Experiment in all cases: NCI anticancer screen, dose series, 48 h
COLO 205 colon = test system: COLO 205 colon
BT-549 breast = test system: BT-549 breast
IGROV1 ovarian = test system: IGROV1 ovarian
DU-145 prostate = test system: DU-145 prostate
UO-31 renal = test system: UO-31 renal
HS 578T breast = test system: HS 578T breast
NCI-H23 lung = test system: NCI-H23 lung
LOX IMVI melanoma = test system: LOX IMVI melanoma
EKVX NSCLC = test system: EKVX NSCLC
HT29 colon = test system: HT29 colon
MOLT-4 leukemia = test system: MOLT-4 leukemia
NCI-H226 lung = test system: NCI-H226 lung
TK-10 renal = test system: TK-10 renal
SW-620 colon = test system: SW-620 colon
K-562 leukemia = test system: K-562 leukemia
HL-60(TB) leukemia = test system: HL-60(TB) leukemia
HCT-116 colon = test system: HCT-116 colon
HOP-92 NSCLC = test system: HOP-92 NSCLC
OVCAR-4 ovarian = test system: OVCAR-4 ovarian
SN12C renal = test system: SN12C renal
HOP-62 NSCLC = test system: HOP-62 NSCLC
KM12 colon = test system: KM12 colon
A549 NSCLC = test system: A549 NSCLC
MDA-MB-231 breast = test system: MDA-MB-231 breast
RXF 393 renal = test system: RXF 393 renal
SK-OV-3 ovarian = test system: SK-OV-3 ovarian
MCF7 breast = test system: MCF7 breast
NCI-H460 lung = test system: NCI-H460 lung
M14 melanoma = test system: M14 melanoma
SR leukemia = test system: SR leukemia
UACC-62 melanoma = test system: UACC-62 melanoma
RPMI-8226 leukemia = test system: RPMI-8226 leukemia
CCRF-CEM leukemia = test system: CCRF-CEM leukemia
MALME-3M melanoma = test system: MALME-3M melanoma
U251 CNS = test system: U251 CNS
SK-MEL-5 melanoma = test system: SK-MEL-5 melanoma
UACC-257 melanoma = test system: UACC-257 melanoma
T-47D breast = test system: T-47D breast
HCT-15 colon = test system: HCT-15 colon
MDA-MB-435 = test system: MDA-MB-435
A498 renal = test system: A498 renal
ACHN renal = test system: ACHN renal
MDA-N = test system: MDA-N
SNB-75 CNS = test system: SNB-75 CNS
OVCAR-3 ovarian = test system: OVCAR-3 ovarian
CAKI-1 renal = test system: CAKI-1 renal
PC-3 prostate = test system: PC-3 prostate
SF-295 CNS = test system: SF-295 CNS
SK-MEL-28 melanoma = test system: SK-MEL-28 melanoma
SF-539 CNS = test system: SF-539 CNS
HCC-2998 colon = test system: HCC-2998 colon
786-0 renal = test system: 786-0 renal
NCI-H522 lung = test system: NCI-H522 lung
OVCAR-5 ovarian = test system: OVCAR-5 ovarian
SF-268 CNS = test system: SF-268 CNS
OVCAR-8 ovarian = test system: OVCAR-8 ovarian
SK-MEL-2 melanoma = test system: SK-MEL-2 melanoma
NCI/ADR-RES ovarian = test system: NCI/ADR-RES ovarian
SNB-19 CNS = test system: SNB-19 CNS

`CC(=N)OC1CC2CCC1(C)C2(C)C` (stereo not given) was tested, and the TGI (COLO 205 colon) was over 100 µM, the TGI (BT-549 breast) was over 100 µM and the TGI (IGROV1 ovarian) was over 100 µM. For the same compound, the TGI (DU-145 prostate) was over 100 µM, the TGI (UO-31 renal) was over 100 µM and the TGI (HS 578T breast) was over 100 µM. For the same compound, the TGI (NCI-H23 lung) was over 100 µM, the TGI (LOX IMVI melanoma) was over 100 µM and the TGI (EKVX NSCLC) was over 100 µM. The TGI (HT29 colon) was over 100 µM, the TGI (MOLT-4 leukemia) was over 100 µM and the TGI (NCI-H226 lung) was over 100 µM. The TGI (TK-10 renal) was over 100 µM, the TGI (SW-620 colon) was over 100 µM and the TGI (K-562 leukemia) was over 100 µM. For the same compound, the TGI (HL-60(TB) leukemia) was over 100 µM, the TGI (HCT-116 colon) was over 100 µM and the TGI (HOP-92 NSCLC) was over 100 µM. For the same compound, the TGI (OVCAR-4 ovarian) was over 100 µM, the TGI (SN12C renal) was over 100 µM and the TGI (HOP-62 NSCLC) was over 100 µM. The TGI (KM12 colon) was over 100 µM, the TGI (A549 NSCLC) was over 100 µM and the TGI (MDA-MB-231 breast) was over 100 µM. The TGI (RXF 393 renal) was over 100 µM, the TGI (SK-OV-3 ovarian) was over 100 µM and the TGI (MCF7 breast) was over 100 µM. It also gave a TGI (NCI-H460 lung) of over 100 µM, a TGI (M14 melanoma) of over 100 µM and a TGI (SR leukemia) of over 100 µM. The TGI (UACC-62 melanoma) was over 100 µM, the TGI (RPMI-8226 leukemia) was over 100 µM and the TGI (CCRF-CEM leukemia) was over 100 µM. The TGI (MALME-3M melanoma) was over 100 µM, the TGI (U251 CNS) was over 100 µM and the TGI (SK-MEL-5 melanoma) was over 100 µM. It also gave a TGI (UACC-257 melanoma) of over 100 µM, a TGI (T-47D breast) of over 100 µM and a TGI (HCT-15 colon) of over 100 µM. For the same compound, the TGI (MDA-MB-435) was over 100 µM, the TGI (A498 renal) was over 100 µM and the TGI (ACHN renal) was over 100 µM. The TGI (MDA-N) was over 100 µM, the TGI (SNB-75 CNS) was over 100 µM and the TGI (OVCAR-3 ovarian) was over 100 µM. The TGI (CAKI-1 renal) was over 100 µM, the TGI (PC-3 prostate) was over 100 µM and the TGI (SF-295 CNS) was over 100 µM. It also gave a TGI (SK-MEL-28 melanoma) of over 100 µM, a TGI (SF-539 CNS) of over 100 µM and a TGI (HCC-2998 colon) of over 100 µM. It also gave a TGI (786-0 renal) of over 100 µM, a TGI (NCI-H522 lung) of over 100 µM and a TGI (OVCAR-5 ovarian) of over 100 µM. For the same compound, the TGI (SF-268 CNS) was over 100 µM and the TGI (OVCAR-8 ovarian) was over 100 µM.

Compound `O=C1CSSCC(=O)Nc2ccccc2N1` has a TGI (COLO 205 colon) of over 100 µM, a TGI (BT-549 breast) of over 100 µM and a TGI (IGROV1 ovarian) of over 100 µM. It also gave a TGI (DU-145 prostate) of over 100 µM, a TGI (UO-31 renal) of over 100 µM and a TGI (HS 578T breast) of over 100 µM. It also gave a TGI (NCI-H23 lung) of over 100 µM, a TGI (LOX IMVI melanoma) of over 100 µM and a TGI (EKVX NSCLC) of over 100 µM. The TGI (HT29 colon) was over 100 µM, the TGI (MOLT-4 leukemia) was over 100 µM and the TGI (NCI-H226 lung) was over 100 µM. It also gave a TGI (TK-10 renal) of over 100 µM, a TGI (SW-620 colon) of over 100 µM and a TGI (K-562 leukemia) of over 100 µM. The TGI (HL-60(TB) leukemia) was over 100 µM, the TGI (HCT-116 colon) was over 100 µM and the TGI (HOP-92 NSCLC) was over 100 µM. The TGI (OVCAR-4 ovarian) was over 100 µM, the TGI (SK-MEL-2 melanoma) was over 100 µM and the TGI (SN12C renal) was over 100 µM. For the same compound, the TGI (HOP-62 NSCLC) was over 100 µM, the TGI (KM12 colon) was over 100 µM and the TGI (A549 NSCLC) was over 100 µM. The TGI (MDA-MB-231 breast) was over 100 µM, the TGI (RXF 393 renal) was over 100 µM and the TGI (SK-OV-3 ovarian) was over 100 µM. The TGI (NCI-H460 lung) was over 100 µM, the TGI (M14 melanoma) was over 100 µM and the TGI (SR leukemia) was over 100 µM. The TGI (UACC-62 melanoma) was over 100 µM, the TGI (RPMI-8226 leukemia) was over 100 µM and the TGI (CCRF-CEM leukemia) was over 100 µM. The TGI (MALME-3M melanoma) was over 100 µM, the TGI (U251 CNS) was over 100 µM and the TGI (SK-MEL-5 melanoma) was over 100 µM. It also gave a TGI (UACC-257 melanoma) of over 100 µM, a TGI (T-47D breast) of over 100 µM and a TGI (HCT-15 colon) of over 100 µM. It also gave a TGI (MDA-MB-435) of over 100 µM, a TGI (NCI/ADR-RES ovarian) of over 100 µM and a TGI (A498 renal) of over 100 µM. The TGI (ACHN renal) was over 100 µM, the TGI (MDA-N) was over 100 µM and the TGI (OVCAR-3 ovarian) was over 100 µM. It also gave a TGI (CAKI-1 renal) of over 100 µM, a TGI (PC-3 prostate) of over 100 µM and a TGI (SF-295 CNS) of over 100 µM. The TGI (SK-MEL-28 melanoma) was over 100 µM, the TGI (SF-539 CNS) was over 100 µM and the TGI (786-0 renal) was over 100 µM. For the same compound, the TGI (SNB-19 CNS) was over 100 µM, the TGI (NCI-H522 lung) was over 100 µM and the TGI (OVCAR-5 ovarian) was over 100 µM. The TGI (SF-268 CNS) was over 100 µM and the TGI (OVCAR-8 ovarian) was over 100 µM.

For `CCOC(=O)c1oc2cc3c(c4c2c1-c1ccccc1N4C)C=CC(C)(C)O3`, the TGI (COLO 205 colon) was over 100 µM, the TGI (BT-549 breast) was 59.6 µM and the TGI (IGROV1 ovarian) was 46.5 µM. It also gave a TGI (DU-145 prostate) of over 70 µM, a TGI (UO-31 renal) of 65.5 µM and a TGI (HS 578T breast) of 75.1 µM. It also gave a TGI (NCI-H23 lung) of over 67.4 µM, a TGI (LOX IMVI melanoma) of over 100 µM and a TGI (EKVX NSCLC) of 46.6 µM. It also gave a TGI (HT29 colon) of over 64 µM, a TGI (MOLT-4 leukemia) of over 100 µM and a TGI (NCI-H226 lung) of 48.9 µM. The TGI (TK-10 renal) was 27.3 µM, the TGI (SW-620 colon) was over 100 µM and the TGI (K-562 leukemia) was over 91 µM. The TGI (HL-60(TB) leukemia) was over 100 µM, the TGI (HCT-116 colon) was over 100 µM and the TGI (HOP-92 NSCLC) was 17.7 µM. It also gave a TGI (OVCAR-4 ovarian) of over 100 µM, a TGI (SK-MEL-2 melanoma) of over 76.4 µM and a TGI (SN12C renal) of over 100 µM. It also gave a TGI (HOP-62 NSCLC) of 24.7 µM, a TGI (KM12 colon) of over 80.4 µM and a TGI (A549 NSCLC) of over 100 µM. It also gave a TGI (MDA-MB-231 breast) of over 100 µM, a TGI (RXF 393 renal) of 28.9 µM and a TGI (SK-OV-3 ovarian) of 69.4 µM. The TGI (MCF7 breast) was 26.8 µM, the TGI (NCI-H460 lung) was over 100 µM and the TGI (M14 melanoma) was over 100 µM. The TGI (UACC-62 melanoma) was over 43.4 µM, the TGI (RPMI-8226 leukemia) was over 64 µM and the TGI (CCRF-CEM leukemia) was over 100 µM. The TGI (MALME-3M melanoma) was 54.3 µM, the TGI (U251 CNS) was 31 µM and the TGI (SK-MEL-5 melanoma) was 97.9 µM. For the same compound, the TGI (UACC-257 melanoma) was over 100 µM, the TGI (T-47D breast) was over 84.4 µM and the TGI (HCT-15 colon) was over 100 µM. It also gave a TGI (MDA-MB-435) of over 100 µM, a TGI (NCI/ADR-RES ovarian) of 27.6 µM and a TGI (A498 renal) of over 71.4 µM. For the same compound, the TGI (ACHN renal) was 30.5 µM, the TGI (MDA-N) was over 100 µM and the TGI (SNB-75 CNS) was 36.4 µM. For the same compound, the TGI (OVCAR-3 ovarian) was 45.3 µM, the TGI (CAKI-1 renal) was 40.8 µM and the TGI (PC-3 prostate) was over 55.3 µM. The TGI (SF-295 CNS) was 30.8 µM, the TGI (SK-MEL-28 melanoma) was over 95.4 µM and the TGI (SF-539 CNS) was 21.2 µM. It also gave a TGI (HCC-2998 colon) of over 100 µM, a TGI (786-0 renal) of over 53 µM and a TGI (SNB-19 CNS) of over 54.9 µM. For the same compound, the TGI (NCI-H522 lung) was 42.6 µM, the TGI (OVCAR-5 ovarian) was over 100 µM and the TGI (SF-268 CNS) was over 49.3 µM. The TGI (OVCAR-8 ovarian) was 27.1 µM.
